Laboratory results taken from article PMC10805834, “Population pharmacokinetic modeling of ilaprazole in healthy subjects and patients with duodenal ulcer in China” (Frontiers in Pharmacology, 2024).
Like-named read-outs stand apart in the source and are kept apart here.

Tests used:
[1] = cited from earlier work
[2] = parameters: method as in Shen et al., 2020; Jiang et al., 2021; conditions: rats; intravenous injection of 14C-ilaprazole; ref Shen et al., 2020; Jiang et al., 2021; cited from earlier work
[3] = cited from earlier work; remark: listed apart in the source
[4] = parameters: method as in Sachs et al., 2006; Shin et al., 2014; conditions: ref Sachs et al., 2006; Shin et al., 2014; cited from earlier work
[5] = parameters: method as in Wang et al., 2019; conditions: ref Wang et al., 2019, cited from earlier work
[6] = Population pharmacokinetic (PopPK) model of ilaprazole, intravenous infusion, pooled data of 4 phase I and 1 phase IIa trials; format: in vivo, human; parameters: Disease status effect on Vp (Disease status = 1): scale not given here; key to ω^2 Vp, inter-individual variability / ω^2 CL, inter-individual variability: variance ω^2 of log-normal (exponential) inter-individual random effect η
Excerpt: Data used to construct the PopPK model in current study were collected from 5 clinical trials of ilaprazole injection, including 4 phase I (No. CTR20132848, No. CTR20140147, No. CTR20150686, No. CTR20150685) clinical trials in healthy subjects, and 1 phase IIa (No. CTR20132846) clinical trial in patients with duodenal ulcer ([Wang et al., 2016a]; [Wang et al., 2016b]; [Wang et al., 2019]). All above studies included in this analysis were reviewed and approved by the Institutional Ethics Committee, registered in the China Clinical Trials Registry Center (chinadrugtrials.org.cn), and conducted in strict adherence to Good Clinical Practice and the Declaration of Helsinki.
The single-dose phase I study (No. CTR20132848) was a randomized, open, four-cycle crossover trial in which 16 healthy subjects were randomized into four groups and were given either oral control drug or intravenous infusion of 5, 10 or 20 mg of ilaprazole during different cycles, after a 1-week washout period, and then separately after crossover. In the multiple-dose phase I study (No. CTR20140147), 10 healthy subjects received a 5-day continuous intravenous infusion of 10 mg ilaprazole once daily. The next studies (No. CTR20150686, No. CTR20150685) were conducted in healthy subjects with a single 30 mg intravenous infusion of ilaprazole, and a 20 mg loading dose combined with a 10 mg maintenance dose for a total of 3 days of intravenous infusion of ilaprazole. In the phase IIa study (No. CTR20132846), 20 patients with duodenal ulcer were randomized to receive a 20 mg loading dose plus a 10 mg maintenance dose of intravenous infusion of ilaprazole once daily or a positive control drug.
Blood samples were collected for clinical pharmacokinetic analysis of ilaprazole in all studies, and the specific sampling designs are summarized in Table 1. To determine the concentration of ilaprazole in human plasma, a validated UPLC-MS/MS method was utilized, with the samples being processed by protein precipitation ([Wang et al., 2012]). The analytes were chromatographed on Acquity UPLC BEH C18 column (waters, MA, United States), and the detection was performed on Xevo-TQS tandem mass spectrometer coupled with an electro-spray ionization (ESI) source (waters, MA, United States). It is notable that ilaprazole concentration remained linear in the range of 1–1,000 ng/mL, with the lower limit of quantification of 1 ng/mL. After excluding 5 concentrations below the limit of quantification (BLQ) and 7 concentrations not detected (ND), a total of 1,560 plasma concentration from 58 subjects who received intravenous infusion of ilaprazole were included in the final PopPK analysis.
Based on the pooled data from the clinical studies mentioned above, the PopPK model for ilaprazole was constructed using non-linear mixed-effects model of Phoenix NLME (version 8.3; Certara Inc, Princeton, NJ, United States). We developed the PopPK model using the first-order conditional estimation extended least squares (FOCE-ELS) method. The specific modeling steps are as follows.
For the basic structural model, one-compartment and two-compartment models were tested to fit the data set according to the plasma concentration-time profile of ilaprazole, plotted on a semi-logarithmic scale. Based on the fact that the distribution of the population pharmacokinetic (PK) parameters essentially conforms to a log-normal distribution, the inter-individual variability in pharmacokinetic parameters was estimated by an exponential model (Eq. 1). Pik=Ppoppk*exp ηik (1)
In Eq. 1, Pik represents the kth pharmacokinetic parameter for the ith individual, Ppopk represents the typical value of the parameter in population, and ηik depicts the deviation between the kth pharmacokinetic parameter of the ith individual and the typical value of the population (i.e., random effect), It is assumed that η follows a normal distribution centered at 0 with variance ω^2. […]

CL, clearance of central compartment ([6]; bootstrap median (n = 1,000)): 3.394 L/h | V, volume of central compartment ([6]; bootstrap median (n = 1,000)): 6.819 L | Vp, volume of peripheral compartment ([6]; bootstrap median (n = 1,000)): 5.480 L | WT effect on Vp ([6]; bootstrap median (n = 1,000)): 1.573 | σmult, residual variability ([6]; bootstrap median (n = 1,000)): 0.182 | ω^2 CL, inter-individual variability ([6]; bootstrap median (n = 1,000)): 0.057 | ω^2 V, inter-individual variability ([6]; bootstrap median (n = 1,000)): 0.013 | ω^2 Vp, inter-individual variability ([6]; bootstrap median (n = 1,000)): 0.033 | clearance ([6]; both sexes, human, plasma, intravenous, final model estimate, read-out: CL, clearance of central compartment, typical value (converted)): 56.6 mL/min | ω^2 CL, inter-individual variability ([6]; final model estimate): 0.059 | ω^2 V, inter-individual variability ([6]; final model estimate): 0.013 | ω^2 Vp, inter-individual variability ([6]; final model estimate): 0.032 | Vp, volume of peripheral compartment, typical value ([6]; final model estimate, median weight 60.6 kg): 5.544 L | σmult, residual variability ([6]; final model estimate, multiplicative residual error): 0.184 | WT effect on Vp ([6]; final model estimate, power exponent on Weight/60.6): 1.545
SMILES: COc1ccnc(C[S+]([O-])c2nc3cc(-n4cccc4)ccc3[nH]2)c1C (centres unmarked) [ilaprazole, 2-[[(4-methoxy-3-methyl)-2-pyridinyl]methyl-sulfinyl]-5-(1H-pyrol-1-yl)-1H-benzimidazole]
plasma protein binding capacity [1]: more than 97% | radioactive signal in tissues/organs [2]: can still be observed in the stomach after 24 h | LogP [3]: 3.04 | half-life (t1/2) [4]: 4.7 to 5.3 h | AUC0‐∞ ([5]; duodenal ulcers patients): 4900 ng·h/mL | Cmax ([5]; duodenal ulcers patients): 1,540 ng/mL | AUC0‐∞ ([5]; healthy subjects): 7400 ng·h/mL | Cmax ([5]; healthy subjects): 1871.3 ng/mL | Disease status effect on Vp (Disease status = 1) ([6]; bootstrap median (n = 1,000), duodenal ulcer): 0.356 | Disease status effect on Vp (Disease status = 1) ([6]; final model estimate, Disease status = 1 for duodenal ulcer): 0.356 | V, volume of central compartment, typical value ([6]; final model estimate, IV infusion, Chinese healthy subjects and duodenal ulcer patients): 6.795 L
